Results taken from the supplement of paper PMC10307832.

Columns and labels:
Test in all cases: relative viability (nuclei count vs DMSO), 5 days (fraction); higher = more cells survive
Kobe2602 + Luminespib = compound: C1=CC(=CC=C1NC(=S)NNC2=C(C=C(C=C2[N+](=O)[O-])C(F)(F)F)[N+](=O)[O-])F [Kobe2602] + CCNC(=O)c1noc(-c2cc(C(C)C)c(O)cc2O)c1-c1ccc(CN2CCOCC2)cc1 [Luminespib] (partner 0.01 µM)
Method in brief: (§1)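 Nuclei were stained with Hoechst during a one-step fixation (final 0.05% Triton X-100, 1% formaldehyde, 1 ug/ml Hoechst) carried out 5 days after dosing, then counted on 4× images. The cells, lung cancer lines in 1536-well plates, had been dosed by pin tool the day after seeding with one drug alone or a fixed anchor-drug dose plus five library-drug doses (not always all listed) in √10 steps. Relative viability is the nuclei count in treated wells divided by that in vehicle wells, and each value is the median of duplicate plates.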

Kobe2602 + Crizotinib = compound: C1=CC(=CC=C1NC(=S)NNC2=C(C=C(C=C2[N+](=O)[O-])C(F)(F)F)[N+](=O)[O-])F [Kobe2602] + C[C@@H](Oc1cc(-c2cnn(C3CCNCC3)c2)cnc1N)c1c(Cl)ccc(F)c1Cl [Crizotinib] (partner 1 µM)
Method in brief: as §1

Kobe2602 + AZD7762 = compound: C1=CC(=CC=C1NC(=S)NNC2=C(C=C(C=C2[N+](=O)[O-])C(F)(F)F)[N+](=O)[O-])F [Kobe2602] + NC(=O)Nc1cc(-c2cccc(F)c2)sc1C(=O)N[C@H]1CCCNC1 [AZD7762] (partner 0.2 µM)
Method in brief: as §1

Cabozantinib + Lapatinib = compound: COc1cc2nccc(Oc3ccc(NC(=O)C4(C(=O)Nc5ccc(F)cc5)CC4)cc3)c2cc1OC [Cabozantinib] + CS(=O)(=O)CCNCc1ccc(-c2ccc3ncnc(Nc4ccc(OCc5cccc(F)c5)c(Cl)c4)c3c2)o1 [Lapatinib] (partner 2 µM)
Method in brief: as §1

Cell Line	relative viability (Kobe2602 + Luminespib; first compound 0.2 µM)	relative viability (Kobe2602 + Luminespib; first compound 0.6325 µM)	relative viability (Kobe2602 + Luminespib; first compound 2 µM)	relative viability (Kobe2602 + Luminespib; first compound 6.325 µM)	relative viability (Kobe2602 + Luminespib; first compound 20 µM)	relative viability (Kobe2602 + Crizotinib; first compound 0.2 µM)	relative viability (Kobe2602 + Crizotinib; first compound 0.6325 µM)	relative viability (Kobe2602 + Crizotinib; first compound 2 µM)	relative viability (Kobe2602 + Crizotinib; first compound 6.325 µM)	relative viability (Kobe2602 + Crizotinib; first compound 20 µM)	relative viability (Kobe2602 + AZD7762; first compound 0.2 µM)	relative viability (Kobe2602 + AZD7762; first compound 0.6325 µM)	relative viability (Kobe2602 + AZD7762; first compound 2 µM)	relative viability (Kobe2602 + AZD7762; first compound 6.325 µM)	relative viability (Kobe2602 + AZD7762; first compound 20 µM)	relative viability (Cabozantinib + Lapatinib; first compound 0.02 µM)	relative viability (Cabozantinib + Lapatinib; first compound 0.06325 µM)	relative viability (Cabozantinib + Lapatinib; first compound 0.2 µM)	relative viability (Cabozantinib + Lapatinib; first compound 0.6325 µM)	relative viability (Cabozantinib + Lapatinib; first compound 2 µM)
LC-2-ad	1.01	1.15	0.908	1.12	1.06	0.433	0.465	0.464	0.547	0.494	0.822	0.879	0.85	0.833	0.828	0.938	1.04	0.876	0.622	0.253
HCC-15	0.411	0.272	0.301	0.255	0.384	0.747	0.803	0.727	0.769	0.752	1.03	1.2	1.02	1.17	1.43	0.85	0.879	0.783	0.843	0.965
NCI-H650	0.754	0.897	0.796	0.748	0.717	0.683	0.692	0.854	0.849	0.636	0.843	1.14	0.924	0.971	1.06	0.787	1.06	1.23	0.491	0.766
LXF-289	0.7	0.799	0.637	0.606	0.708	0.789	0.826	0.826	0.792	0.791	1.06	1.08	1.08	1.06	1.08	0.91	0.922	0.896	0.918	0.92
LOU-NH91	0.387	0.338	0.326	0.367	0.331	0.736	0.763	0.745	0.707	0.77	0.739	0.792	0.717	0.758	0.716	0.687	0.776	0.781	0.711	0.712
NCI-H1355	0.795	0.686	0.607	0.775	0.75	1.04	1.12	0.747	0.952	0.957	0.744	0.7	0.744	0.676	0.815	0.825	1.12	1.02	0.979	1.03
NCI-H460	0.0275	0.0348	0.0337	0.0344	0.0251	0.855	0.905	0.922	0.893	0.729	0.64	0.756	0.681	0.652	0.56	1.19	1.13	0.958	0.97	0.981
NCI-H1666	0.975	1.08	1	1.05	1.08	0.919	1.01		1	0.746	0.804	0.804	0.903	0.812	0.891	0.693	0.621	0.677	0.712	0.595
HARA	0.752	1.05	0.688	0.776	0.69	1.05	1.01	1.05	1.24	0.981	0.304	0.266	0.477	0.356	0.379	0.582	0.806	0.856	0.809	0.639
NCI-H358	0.364	0.324	0.237	0.477	0.349	0.598	0.597	0.581	0.746	0.652	0.608	0.486	0.522	0.618	0.552	0.449	0.418	0.454	0.358	0.369
NCI-H3122	0.074	0.0661	0.0867	0.102	0.0834	0.262	0.255	0.254	0.263	0.266	0.984	0.963	0.935	1.09	1.04	1.01	1.01	1.02	1.03	0.954
201T	1.02	1.05	0.993	1.14	0.966	1.07	1.02	1.04	1.02	1.1	0.614	0.619	0.603	0.611	0.799	1.02	1.14	0.991	0.999	1.08
NCI-H1734	0.196	0.175	0.167	0.187	0.173	0.71	0.652	0.604	0.599	0.735	0.554	0.656	0.586	0.549	0.503	0.98	1.09	0.984	1.08	1.01
NCI-H1651	0.673	0.911	0.642	0.758	0.93	0.908	0.887	0.978	0.847	0.859	0.442	0.447	0.462	0.41	0.429	0.812	0.794	0.71	0.786	0.754
PC-3 [JPC-3]	0.746	0.799	0.713	0.748	0.649	0.933	1.02	0.946	0.925	0.974	0.872	0.913	0.603	0.823	0.835	0.398	0.473		0.407	0.391
NCI-H1915	0.778	0.875	0.783	0.852	0.693	0.886	0.92	0.897	0.931	0.91	0.711	0.729	0.7	0.71	0.682	0.946	0.987	0.967	0.999	0.989

Cell Line	relative viability (Kobe2602 + Luminespib; first compound 0.2 µM)	relative viability (Kobe2602 + Luminespib; first compound 0.6325 µM)	relative viability (Kobe2602 + Luminespib; first compound 2 µM)	relative viability (Kobe2602 + Luminespib; first compound 6.325 µM)	relative viability (Kobe2602 + Luminespib; first compound 20 µM)	relative viability (Kobe2602 + Crizotinib; first compound 0.2 µM)	relative viability (Kobe2602 + Crizotinib; first compound 0.6325 µM)	relative viability (Kobe2602 + Crizotinib; first compound 2 µM)	relative viability (Kobe2602 + Crizotinib; first compound 6.325 µM)	relative viability (Kobe2602 + Crizotinib; first compound 20 µM)	relative viability (Kobe2602 + AZD7762; first compound 0.2 µM)	relative viability (Kobe2602 + AZD7762; first compound 0.6325 µM)	relative viability (Kobe2602 + AZD7762; first compound 2 µM)	relative viability (Kobe2602 + AZD7762; first compound 6.325 µM)	relative viability (Kobe2602 + AZD7762; first compound 20 µM)	relative viability (Cabozantinib + Lapatinib; first compound 0.02 µM)	relative viability (Cabozantinib + Lapatinib; first compound 0.06325 µM)	relative viability (Cabozantinib + Lapatinib; first compound 0.2 µM)	relative viability (Cabozantinib + Lapatinib; first compound 0.6325 µM)	relative viability (Cabozantinib + Lapatinib; first compound 2 µM)
HOP-62	0.933	0.957	0.866	0.88	0.87	0.803	0.9	0.961	0.873	0.962	0.635	0.529	0.667	0.447	0.537	1.05	1.3	1.19	1.2	1.14
NCI-H1975	0.365	0.29	0.229	0.216	0.288	1.01	0.959	0.838	0.897	0.779	0.724	0.791	0.658	0.645	0.662	0.969	0.986	0.852	0.845	0.797
BEN	0.507	0.576	0.386	0.481	0.436	0.948	0.727	0.894	0.843	0.819	0.74	0.73	0.74	0.651	0.691	0.702	0.814	0.846	0.67	0.63
EMC-BAC-2	1.16	1.16	1.13	1.31	1.14	0.759	0.799	0.754	0.755	0.747	1.14	1.16	1.06	1.21	1.16	0.841	0.927	0.88	0.879	0.973
NCI-H727	0.581	0.516	0.4	0.407	0.414	0.767	0.69	0.776	0.64	0.865	0.57	0.519	0.532		0.644	0.61	1.27	0.702	0.806	0.783
LU99A	0.281	0.29	0.227	0.2	0.343	0.557	0.601	0.571	0.607	0.641	0.356	0.381	0.31	0.279	0.356	0.896	1.07	0.985	0.996	0.931
NCI-H2405	0.674	0.694	0.73	0.771	0.719	0.853	0.916	0.827	0.91	0.786	0.767	0.912	0.664	0.798	0.857		1.16	1.2	1.1	1.02
HCC-827	0.856	0.793	0.619	0.369	0.831	0.925	0.921	0.903	0.91	0.859	0.217	0.223	0.349	0.242	0.339	0.19	0.233		0.183	0.179
NCI-H838	0.353	0.395	0.308	0.268	0.278	0.777	0.964	0.759	0.909	0.83	0.918	1.01	0.874	0.915	0.898	1.01	0.997	0.895	0.881	0.877
CAL-12T	0.358	1.01	0.241	0.362	0.233	0.604	0.569	0.618	0.641	0.549	0.644	0.736	0.568	0.609	0.506	0.708	0.653	0.701		0.529
RERF-LC-KJ	1.12	1.17	1.2	1.03	0.515	0.781	0.839	0.836	0.81	0.756	0.883	0.973	1.02	0.881	0.894	0.904	0.894	0.784	0.776	0.815
NCI-H2347	0.454	0.369	0.793		0.756	0.613	0.643	0.612	0.712	0.785	0.85	0.77	0.798	0.713	0.806	0.883	0.951	1.03	0.824	0.925
PC-14	0.16	0.161	0.307	0.151	0.149	0.886	0.927	0.838	1.02	0.912	0.39	0.445	0.348	0.351	0.308	0.27	0.3		0.273	0.27
LCLC-97TM1	0.749	0.718	0.739	0.741	0.819	0.405	0.336	0.242	0.372	0.282	0.364	0.303	0.341	0.279	0.37		1.21	0.927	1.13	1.09
HCC-44	1.05	0.97	0.984	1.13	0.921	0.771	0.697	0.767	0.783	0.749	0.951	0.952	1.04	0.982	0.892	1.09	1.12	1	1.11	1.04
A-427	0.943	0.872	0.85	0.893	0.911	0.898	0.903	0.843	1	1.01	0.784	0.809	0.808	0.812	0.939	1.1	1.11	0.963	1.02	1.08
